Measurements published in PMC4326127, “Collagen Inhibitory Peptide R1R2 Mediates Vascular Remodeling by Decreasing Inflammation and Smooth Muscle Cell Activation” (PLoS ONE, 2015).
Entries after “also recorded” stand apart in the source; their conditions may differ.

Tests used:
[1] = system: binding of FN to collagen type I; assay: Solid-phase binding assay (competitive ELISA) of FN to collagen; parameters: species or system human FN; rat collagen type I; conditions: 4 nM FN incubated with peptide at 4°C overnight, then on wells coated with 10 μg/ml collagen I overnight at 37°C; anti-FN/HRP, ABTS, A405
Experimental: Human FN and rat collagen type I for competitive ELISA were purchased from Sigma-Aldrich (St. Louis, MO).
The FN-peptide solutions were added to collagen or BSA-coated wells, and the plates were incubated overnight at 37°C. The wells were washed and a rabbit anti-FN antibody was added for 90 minutes at room temperature. Wells were washed and then incubated with a horseradish peroxidase-conjugated secondary antibody. After washing was completed, peroxidase activity was quantified using 2,2'-azino-bis-(3-ethylbenthiazoline-6-sulfonic acid). Measurements were done at 405 nm (A405) using a SpectraMax M5 microplate reader (Molecular Device, Sunnyvale, CA).
Bound FN was detected with an anti-FN antibody followed by HRP-conjugated secondary antibody, and ABTS as described in Methods. The absorbance at 405nm was quantitated.

[2] = system: ICAM-1; assay: Western blot of ICAM-1 in TNF-α-treated HUVECs; type: cell-based, human; conditions: in words
Experimental: Human umbilical vein endothelial cells (HUVECs) and A7r5 SMCs were provided by Resource Center (SB3, NSC 100-2325-B-080-001), National Research Program for Biopharmaceuticals (Hsinchu, Taiwan). HUVECs were maintained in M199 (Life Technologies, Carlsbad, CA) with 25U/ml heparin (Sigma-Aldrich, St. Louis, MO), 10% fetal bovine serum (FBS) and endothelial cell growth supplement (ECGS; Millipore, Billerica, MA). A7r5 SMCs were grown in Dulbecco’s Modified Eagle’s Medium (DMEM) containing high glucose, supplemented with 10% fetal bovine serum. Human U937 cells were grown in RPMI1640 with 10% FBS.
Tissues or cells were homogenized with RIPA buffer supplemented with protease inhibitor cocktail (Sigma-Aldrich, St. Louis, MO). Cell lysates were spun at 12,000 rpm for 15 min at 4°C, then electrophoresed on 10% SDS-PAGE gel and transferred to nitrocellulose. […]
Fig 8 R1R2 decreases TNF-α-induced monocyte U937 cell adhesion to HUVECs and transendothelial migration and reduces ICAM-1 and VCAM-1 levels. […] Calcein-AM labeled U937 monocyte adhesion to TNF-α HUVECs was quantitated by fluorescence intensity. Microscopic images showing U937 monocytes adhering to HUVECs as assessed by in vitro adhesion assay. […]

[3] = system: FN fibril; conditions: in vitro; ref [29]; cited from earlier work
From the text: Therefore, we used the experimental group treated with scrambled peptide as the control group. In Fig. 3A and 3B, IHC analysi ... || In vitro studies have shown that FN is required as a scaffold for collagen deposition. Inhibiting FN polymerization with antibodies or inhibitors prevents FN and collagen fibril deposition into the ECM in vitro [27, 31].

GLNGENQKEPEQGERGEAGPPLSGLSGNNQGRPSLPGLNGENQKEPEQGERGEAGPP [R1R2]
effect on FN-collagen type I binding [1]: blocked the binding of FN to collagen type I in a dose-dependent manner | ICAM-1 expression on HUVECs [2]: significantly decreased; also recorded: transient and detected earlier than the effect on VCAM-1 expression | effect on FN fibril deposition/formation [3]: does not affect FN fibril deposition into the ECM; also recorded: does not alter FN fibril formation
